pIC50: −log10 of the molar value.
Key:
15-PGDH in A549 cells = target: T1, 15-PGDH in A549 cells (Homo sapiens, UniProt P15428); experiment: A549 cellular 15-PGDH assay (PGE2 accumulation, HTRF); assay type: cell-based; settings: interleukin-stimulated, inhibitor 24 hrs, PGE2 by competitive HTRF, read-out: A549 Cell Assay IC50
T1 construct: endogenous in cells; host or cells: A549
T1 sequence (P15428 1-266): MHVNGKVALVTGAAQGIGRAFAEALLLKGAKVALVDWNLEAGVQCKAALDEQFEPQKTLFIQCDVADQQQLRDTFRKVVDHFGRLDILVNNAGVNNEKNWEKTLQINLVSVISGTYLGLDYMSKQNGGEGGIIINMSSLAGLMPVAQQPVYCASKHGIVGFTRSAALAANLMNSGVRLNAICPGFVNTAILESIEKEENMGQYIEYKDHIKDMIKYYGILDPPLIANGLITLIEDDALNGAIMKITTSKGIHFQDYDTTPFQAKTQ
In short: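 IL-13-stimulated A549 lung carcinoma cells released PGE2, which was measured in supernatants by competitive HTRF with a Eu-cryptate anti-PGE2 antibody and labelled PGE2. Signal falls as PGE2 rises. IC50 values were derived from the binding data.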

[1] = tested on: DSS-induced colitis in C57BL/6 female mice; experiment: In vivo mouse DSS study - colon length; settings: for Colon length Mean: oral gavage, day 10; for Recovery % (vs vehicle) / Reduction % (vs naïve): colon length
Experimental: In this study, 12-week-old C57BL/6 female mice (Taconic, the Cambridge City) were supplemented with 2.5% DSS (MP Biomedicals, MW 36,000-50,000) in drinking water for days 0-7, and then switched to normal drinking water beginning on day 7 and continued through day 10. Mice were treated once/twice daily by oral gavage with different compounds of Formula (A) (e.g., B15S, B15R, B30R, or B41R) in different dosing levels or with vehicle solution of 2% HPMC, 1% Tween 80 (w/v) in DI water starting on day 0. Mice were sacrificed on day 10 for assessment of colon length. The DSS-induced model of colitis is a widely used animal model for studying the pathogenesis of and potential treatments for UC, which is a primary form of IBD. DSS water intake causes colonic mucosa injury and erosion, gland loss, and infiltration of proinflammatory immune cells in the colon tissue, followed by mucosal repair and tissue remodeling. This is manifested by a shortened colon, the degree of which correlates well with the severity of mucosal injury in this mouse model of DSS-induced experimental colitis.

[2] = target: T2, human recombinant 15-PGDH (Homo sapiens, UniProt P15428); experiment: Recombinant 15-PGDH enzymatic inhibition assay (PGDH-Lumi, NADH signal); assay type: biochemical; settings: for pIC50: recombinant 15-PGDH, 15 min pre-incubation, 60 min reaction with PGE2 and NAD+, NADH signal
T2 sequence (P15428 1-266): T1 sequence (P15428 1-266)
In short: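 Recombinant 15-PGDH pre-incubated 15 min at room temperature with compound (22 concentrations, 2-fold dilutions) in 50 mM Tris pH 7.5, 0.01% Tween-20, […].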

[3] = tested on: DSS-induced colitis in C57BL/6 mice; experiment: In vivo mouse DSS study - histopathological analysis of colon; settings: versus DSS + vehicle
Experimental: Histopathological analysis was performed on the […] mice from the DSS study described above. Analysis was performed on mice from the B15R, B30R, or B41R groups. Briefly, mouse colon tissues were collected at necropsy, flushed with PBS, manipulated intact into individual modified Swiss rolls, placed into separate tissue cassettes and fixed for approximately 24 hours by immersion in 10% neutral buffered formalin followed by transfer to […]. Fixed tissues were routinely processed, paraffin-embedded, sectioned, mounted on glass slides and hematoxylin and eosin stained. Glass slides were scanned and digital images were accessed for histopathology evaluation. Prior to histopathology assessment, metadata for all digital images reviewed was exported from a digital pathology platform database into an Excel spreadsheet, followed by assignment of each digital image with a random number (greater than 0 and less than 1) using the RAND function in Excel. From smallest to largest random number assigned, each digital image was retrieved for evaluation using only the RTLIMS Inventory Code as the unique identifier for each digital image. Each digital image was individually reviewed without knowledge of treatment group (blinded/masked evaluation), and with the slide label image hidden when viewing digital images. […] Scoring of tissues for DSS-induced colitis was performed using a scoring system and criteria modified and adapted from BolderBioPATH, Inc./Inotiv. Ordinal data (histopathology scores) were analyzed using a non-parametric Kruskal-Wallis one-way analysis of variance test followed by a Dunn's multiple comparison test (GraphPad Prism).
The following scoring systems were used to provide histological scores: […]

pIC50 (15-PGDH in A549 cells)	pIC50 [2]	SMILES	Colon length Mean ([1]; 0.625 mpk, BID)	Colon length Mean ([1]; 1.25 mpk, QD)	Colon length Mean ([1]; 2.5 mpk, BID)	Colon length Mean ([1]; 5 mpk, QD)	Recovery % (vs vehicle) ([1]; 0.625 mpk, BID)	Reduction % (vs naïve) ([1]; 0.625 mpk, BID)	Recovery % (vs vehicle) ([1]; 1.25 mpk, QD)	Reduction % (vs naïve) ([1]; 1.25 mpk, QD)	Recovery % (vs vehicle) ([1]; 2.5 mpk, BID)	Reduction % (vs naïve) ([1]; 2.5 mpk, BID)	Recovery % (vs vehicle) ([1]; 5 mpk, QD)	Reduction % (vs naïve) ([1]; 5 mpk, QD)	colon length comparing to vehicle group ([1]; different doses daily)	erosion scores ([3]; all doses evaluated)	inflammation scores ([3]; all doses evaluated)	sum of histopathology scores ([3]; all doses evaluated)	Colon length Mean ([1]; 10 mpk, QD)	Colon length Mean ([1]; 20 mpk, QD)	further results
9.25	9.40	Cn1cc2cc(-c3ccc4cc([C@H](O)C5CCOCC5)sc4n3)cnc2n1 (single isomer, unassigned) [Compound B15R]	7.6 cm	7.84 cm	8.09 cm	7.89 cm	42.29%	14.97%	57.64%	12.28%	63.43%	8.09%	54.80%	11.72%	significant improvement of colon length	decreased severity	decreased severity	decreased severity	–	–	gland loss scores ([3]; all doses evaluated): decreased severity
9.63	9.80	Cn1cc2cc(-c3ccc4cc([C@H](O)C5CC(F)(F)C5)sc4n3)cnc2n1 (single isomer, unassigned) [Compound B30R]	7.622 cm	7.733 cm	7.780 cm	8.360 cm	56.343%	9.413%	62.467%	8.093%	65.039%	7.538%	97.008%	0.645%	significant improvement of colon length	decreased severity	decreased severity	decreased severity	8.110 cm	8.188 cm	Recovery % (vs vehicle) ([1]; 10 mpk, QD): 83.228%; Reduction % (vs naïve) ([1]; 10 mpk, QD): 3.616%; Recovery % (vs vehicle) ([1]; 20 mpk, QD): 87.5%; Reduction % (vs naïve) ([1]; 20 mpk, QD): 2.265%; gland loss scores ([3]; at 0.625 mg/kg BID, 1.25 mg/kg QD, 2.5 mg/kg BID and 5 mg/kg QD): decreased severity
8.67	9.02	Cn1nnc2cc(-c3ccc4cc([C@H](O)C5CCOCC5)sc4n3)cnc21 (single isomer, unassigned) [Compound B41R]	–	–	–	–	–	–	–	–	–	–	–	–	–	decreased severity	decreased severity	decreased severity	7.9 cm	–	colon length comparing to vehicle group ([1]; 2.5 mg/kg and 10 mg/kg daily): significant improvement of colon length; Colon length Mean ([1]; 0.1 mpk, QD): 7.0 cm; Colon length Mean ([1]; 0.25 mpk, QD): 6.8 cm; Colon length Mean ([1]; 0.625 mpk, QD): 7.3 cm; Colon length Mean ([1]; 2.5 mpk, QD): 7.3 cm; Recovery % (vs vehicle) ([1]; 0.1 mpk, QD): 25.46%; Reduction % (vs naïve) ([1]; 0.1 mpk, QD): 14.63%; Recovery % (vs vehicle) ([1]; 0.25 mpk, QD): 11.18%; Reduction % (vs naïve) ([1]; 0.25 mpk, QD): 17.44%; Recovery % (vs vehicle) ([1]; 0.625 mpk, QD): 40.99%; Reduction % (vs naïve) ([1]; 0.625 mpk, QD): 11.59%; Recovery % (vs vehicle) ([1]; 2.5 mpk, QD): 45.34%; Reduction % (vs naïve) ([1]; 2.5 mpk, QD): 10.73%; Recovery % (vs vehicle) ([1]; 10 mpk, QD): 82.06%; Reduction % (vs naïve) ([1]; 10 mpk, QD): 3.52%; gland loss scores ([3]; at 0.1 mg/kg QD and >0.625 mg/kg QD): decreased severity
9.30	6.82	Cn1cc2cc(-c3ccc4cc([C@@H](O)C5CCOCC5)sc4n3)cnc2n1 [Compound B15S, (S)-(6-(2-methyl-2H-pyrazolo[3,4-b]pyridin-5-yl)thieno[2,3-b]pyridin-2-yl)(tetrahydro-2H-pyran-4-yl)methanol]	6.51 cm	6.60 cm	6.52 cm	6.90 cm	13.4%	24.8%	17.0%	23.7%	13.7%	24.7%	29.0%	20.3%	–	–	–	–	–	6.97 cm	colon length comparing to vehicle group ([1]; 5 mg/kg and 20 mg/kg once daily): significant improvement of colon length; Recovery % (vs vehicle) ([1]; 20 mpk, QD): 31.9%; Reduction % (vs naïve) ([1]; 20 mpk, QD): 19.5%; times less potent than B15R in the biochemical assay ([2]; S-enantiomer versus R-enantiomer): around 200

From US20240409557A1, “5,6-FUSED AND 6,6-FUSED BICYCLIC ALCOHOLS AND ETHERS AND COMPOSITIONS FOR USE AS 15-PROSTAGLANDIN DEHYDROGENASE MODULATORS” (AMGEN INC., priority 2023, published 2024)
